Earlier results as cited in publication PMC8915598.

Assay: not told

Compound: CC(=O)Nc1ccc(Cl)cc1
- log partition octanol / water: 2.12 log10

Compound: NC(=O)c1ccc(N)cc1
- log partition octanol / water: -0.41 log10
